Reference: US9834823B2, “Primers, assays and methods for detecting an E. coli subtype” (priority 2012, dated 2017)
Where “and” joins values, the source holds several entries; their conditions need not be identical. Identical values can stand only once.

Assays:
Type in all cases: cell-based
[1] = system: Escherichia coli clinical isolates (ESBL-positive and ESBL-negative; ST131 subclones); assay: Broth microdilution antimicrobial susceptibility, NorthShore ESBL case-control isolates; settings: for No. of resistant isolates (column %), H30-Rx (N = 47): H30-Rx subclone isolates (N = 47) within the H30 ST131 subclone; for No. of resistant isolates (column %), H30, non-Rx (N = 15): H30 non-Rx isolates (N = 15) within the H30 ST131 subclone; for No. of resistant isolates (column %), H30 (N = 62): H30 subclone isolates (N = 62) among 71 E. coli ST131 isolates; for No. of resistant isolates (column %), Non-H30 (N = 9): non-H30 isolates (N = 9) among 71 E. coli ST131 isolates
Text: As reported elsewhere, the 267 E. coli study isolates were collected between 2007 and 2010 as part of a prospective case-control study conducted at NorthShore University HealthSystem (Banerjee, R J et al. “Predictors and molecular epidemiology of community-onset extended-spectrum beta-lactamase (ESBL) Escherichia coli infection in a Midwestern community,” 2013 Infect Control Hosp Epidemiol; in press). Cases were defined as adults with ESBL-producing E. coli cultured from any specimen type. Controls were defined as the 1 or 2 patients with non-ESBL E. coli isolates identified just subsequent to the case isolate, and with the same specimen type and location of collection. Isolates obtained in the outpatient setting or within 48 hours of hospital admission were considered causes of community-associated infection. Further study details are as described (Banerjee, R J et al. “Predictors and molecular epidemiology of community-onset extended-spectrum beta-lactamase (ESBL) Escherichia coli infection in a Midwestern community,” 2013 Infect Control Hosp Epidemiol; in press).
The resistance score was the total number of agents to which an isolate was resistant. This study was approved by the NorthShore and VA Medical Center institutional review boards.

[2] = system: extraintestinal Escherichia coli isolates; assay: Antimicrobial susceptibility testing (CLSI breakpoints), Olmsted County isolates; settings: for Resistance prevalence among H30 ST131: H30 ST131 subclone, N = 70; for Resistance prevalence among non-H30 ST131: non-H30 ST131, N = 10
[3] = system: Escherichia coli clinical isolates from U.S. veterans; assay: Susceptibility testing (broth microdilution or disk diffusion) at VAMCs with population back-calculations; settings: for Prevalence of resistance, H30 ST131: H30 ST131 subclone isolates (H30 subclone vs. others); for Prevalence of resistance, ST131: ST131 isolates (ST131 vs. others); for Prevalence of resistance, Total (%): all isolates; for Estimated fraction due to ST131: fraction of resistance phenotype due to ST131; for Overall prevalence in population, %: resistance phenotype, back-calculated with 29% FQ resistance; for ST131's overall contribution to antimicrobial resistance within the source E. coli population: back-calculations
[4] = ESBL-negative isolates, All N = 167
[5] = ESBL-negative isolates, Non-ST131 N = 145
[6] = ESBL-negative isolates, ST131 N = 22
[7] = ESBL-positive isolates, All N = 100
[8] = ESBL-positive isolates, Non-ST131 N = 51
[9] = ESBL-positive isolates, ST131 N = 49
[10] = all non-H30 isolates (H30 subclone vs. others)
[11] = all non-ST131 isolates (ST131 vs. others)
[12] = resistance prevalence among H30 ST131 subclone isolates relative to all other isolates
[13] = resistance prevalence among ST131 isolates relative to all other isolates

Compound	No. resistant (column %) [1, 4]	No. resistant (column %) [1, 5]	No. of resistant isolates (column %) ([2]; All isolates, N = 299)	Resistance prevalence among H30 ST131 [2] [%]	No. of resistant isolates (column %) ([2]; Other STs, N = 129)	No. of resistant isolates (column %) ([2]; ST9, N = 32)	No. of resistant isolates (column %) ([2]; ST69, N = 15)	No. of resistant isolates (column %) ([2]; ST73, N = 25)	No. of resistant isolates (column %) ([2]; ST127, N = 18)	No. of resistant isolates (column %) ([2]; ST131, N = 80)	Resistance prevalence among non-H30 ST131 [2] [%]	Prevalence of resistance, H30 ST131 [3]	Prevalence of resistance, ST131 [3]	Prevalence of resistance, Total (%) [3] [%]	Prevalence of resistance, Others (%) [3, 10] [%]	Prevalence of resistance, Others (%) [3, 11] [%]	Estimated fraction due to ST131 [3]	Overall prevalence in population, % [3] [%]	Prevalence ratio of resistance [3, 12]	Prevalence ratio of resistance [3, 13]	further results
CC(C)(O/N=C(\C(=O)N[C@@H]1C(=O)N2C(C(=O)[O-])=C(C[n+]3ccccc3)CS[C@H]12)c1csc(N)n1)C(=O)O [Ceftazidime]	1 (1)	1 (1)																			No. resistant (column %) [1, 6]: 0 (0); No. resistant (column %) [1, 7]: 92 (92); No. resistant (column %) [1, 8]: 47 (92); No. resistant (column %) [1, 9]: 45 (92); No. of resistant isolates (column %), H30-Rx (N = 47) [1]: 40 (85) No. (column %); No. of resistant isolates (column %), H30, non-Rx (N = 15) [1]: 4 (27) No. (column %); No. of resistant isolates (column %), H30 (N = 62) [1]: 44 (71) No. (column %); No. of resistant isolates (column %), Non-H30 (N = 9) [1]: 1 (11) No. (column %)
CC1(C)S[C@@H]2[C@H](NC(=O)[C@H](N)c3ccccc3)C(=O)N2[C@H]1C(=O)O [Ampicillin, ampicillin]	73 (44)	54 (37)	156 (52)	81	3 (41)	13 (41)	11 (73)	10 (40)	4 (22)	65 (81)	80	76	77	46	36	34	.46	46	2.1	2.3	No. resistant (column %) [1, 6]: 19 (86); No. resistant (column %) [1, 7]: 100 (100); No. resistant (column %) [1, 8]: 51 (100); No. resistant (column %) [1, 9]: 49 (100); No. of resistant isolates (column %), H30-Rx (N = 47) [1]: 46 (98) No. (column %); No. of resistant isolates (column %), H30, non-Rx (N = 15) [1]: 15 (100) No. (column %); No. of resistant isolates (column %), H30 (N = 62) [1]: 61 (98) No. (column %); No. of resistant isolates (column %), Non-H30 (N = 9) [1]: 7 (78) No. (column %)
trimethoprim-sulfamethoxazole [TMP/SMX]	31 (19)	18 (12)	88 (29)	47	37 (29)	2 (6)	8 (53)	3 (12)	1 (6)	37 (46)	40	47	42	22	14	13	.56	22	3.3	2.4	Prevalence of resistance, ST69 ([2]; ST69 isolates): 53%; Prevalence of resistance, ST131 ([2]; ST131 isolates): 46%; No. resistant (column %) [1, 6]: 13 (59); No. resistant (column %) [1, 7]: 63 (63); No. resistant (column %) [1, 8]: 39 (76); No. resistant (column %) [1, 9]: 24 (49); No. of resistant isolates (column %), H30-Rx (N = 47) [1]: 21 (45) No. (column %); No. of resistant isolates (column %), H30, non-Rx (N = 15) [1]: 10 (67) No. (column %); No. of resistant isolates (column %), H30 (N = 62) [1]: 31 (50) No. (column %); No. of resistant isolates (column %), Non-H30 (N = 9) [1]: 6 (67) No. (column %); ST131's overall contribution to antimicrobial resistance within the source E. coli population ([3]; listed as TMP-SMZ): > 50% and 56%
piperacillin/tazobactam			6 (2)	1	2 (2)	0	0	2 (8)	1 (6)	1 (1)	0										
gentamicin	12 (7)	2 (1)	29 (10)	30	5 (4)	0	0	0	1 (6)	23 (29)	20	28	29	11	5	3	.76	11	5.4	8.2	No. resistant (column %) [1, 6]: 10 (45); No. resistant (column %) [1, 7]: 48 (48); No. resistant (column %) [1, 8]: 30 (59); No. resistant (column %) [1, 9]: 18 (37); No. of resistant isolates (column %), H30-Rx (N = 47) [1]: 15 (32) No. (column %); No. of resistant isolates (column %), H30, non-Rx (N = 15) [1]: 8 (53) No. (column %); No. of resistant isolates (column %), H30 (N = 62) [1]: 23 (37) No. (column %); No. of resistant isolates (column %), Non-H30 (N = 9) [1]: 5 (56) No. (column %); ST131's overall contribution to antimicrobial resistance within the source E. coli population [3]: 76%
O=C1CN(/N=C/c2ccc([N+](=O)[O-])o2)C(=O)N1 [Nitrofurantoin, nitrofurantoin]			8 (3)	3	3 (2)	1 (3)	0	1 (4)	0	3 (4)	13	8	8	6	5	5	.36	6	3.4	3.2	
ampicillin/sulbactam												57	58	34	27	24	.48	34	2.1	2.4	
CO/N=C(\C(=O)N[C@@H]1C(=O)N2C(C(=O)O)=C(CSc3nc(=O)c(=O)[nH]n3C)CS[C@H]12)c1csc(N)n1 [Ceftriaxone, ceftriaxone]	1 (1)	1 (1)	16 (6)	9	8 (7)	0	0	0	0	8 (11)	29	4	3	2	2	2	.43	2	2.0	1.9	No. resistant (column %) [1, 6]: 0 (0); No. resistant (column %) [1, 7]: 98 (98); No. resistant (column %) [1, 8]: 51 (100); No. resistant (column %) [1, 9]: 47 (96); No. of resistant isolates (column %), H30-Rx (N = 47) [1]: 42 (89) No. (column %); No. of resistant isolates (column %), H30, non-Rx (N = 15) [1]: 4 (27) No. (column %); No. of resistant isolates (column %), H30 (N = 62) [1]: 46 (74) No. (column %); No. of resistant isolates (column %), Non-H30 (N = 9) [1]: 1 (11) No. (column %)
C[C@@H](O)[C@H]1C(=O)N2C(C(=O)O)=C(SCCN=CN)C[C@H]12 [Imipenem, imipenem]			3 (1)		1 (1)	0	0	0	2 (14)	0		0.5	0.4	0.25	0.2	0.2	.50	0.25	1.4	1.4	
